Consider six compounds from patent publication US20070254037A1 (priority 2004, published 2007).

For data set [1], the system named is right axillar lymphnode (recurrence of melanoma). The experiment in a line: Example 11: slow release injection into melanoma axillar lymphnode. It counts as in vivo, human.
The subject of the next data set is meningioma. Nature of the data set: Example 16: stereotactic injection into meningioma. It counts as in vivo, human.
The test system of data set [2] is lymphnode in the left cervical area (tonsillar carcinoma). Nature of the data set: Example 13: rods implanted in cervical lymphnode. The class given is in vivo, human. On the procedure: A patient presents with a 10 cm diameter lymphnode located in the left cervical area. […] The patient refuses any kind of prolonged therapy. They accept a tumour implantation of a slow release drug. Fourteen 7 cm long rods of lactide-capronolactone containing rotenone, are implanted. The total dose of rotenone delivered over 2 weeks by the rods is 60 mg. […] The patient accepts radiation therapy.

The test system of data set [3] is metastasis in the 10th dorsal vertebra from a breast tumor. The experiment in a line: Example 14: intratumoural injection into vertebral metastasis. It counts as in vivo, human. The note with it: on the next day; 20 mg as SLN in 1 ml poly(orthoesther) paste. How it is done:
A person presents with metastases originating from a breast tumor operated and irradiated 3 years before. […] The patient is young and one wants to keep radiotherapy for further recurrences. They benefit from an intratumoural injection of 1 ml of polymeric paste (poly(orthoesther)), containing 20 mg of Antimycin A formulated as SLN. The paste is deposited in the center of the metastasis under fluoroscopy control. The pain drops on the next day by ⅔. […] This allows to visualize the elution rate and the melting process of the polymer, and to better follow and understand the kinetics of the treatment.
At 3 weeks the polymer has nearly totally disappeared, and the patient is sent for the injection of a cement (methylmethacrylate) inside the vertebra, under fluoroscopy. The pain disappears totally and the patient is followed up locally, ready to be treated when new metastases appear.

Another data set relates to tumour. The experiment in a line: Rhodamine delivered directly in the tumour (slow release). The class given is in vivo. The note with it: 40 or 50 mg directly in the tumour. The text has this:
By locally delivering oxidative phosphorylation inhibitors into proliferating cells in a slow release formulation, the delivery period is prolonged i.e. the inhibitors are not cleared by the liver, and the dose received by the tumour is effectively higher than using systemic delivery. Furthemore, the lethal dose can be greatly exceeded. […] Such a dose, delivered systemically, would require 100 g of rhodamine, more than 1000 times the lethal dose. Thus, a composition comprising an oxidative phorphosrylation inhibitor in a slow release formulation increases the effective dose to the tumour and permits greater than lethal dosing.

The test system of data set [4] is metastatic prostate cancer. The note with it: cited from earlier work.
Data set [5] deals with metastatic prostate cancer. The experiment in a line: Phase I clinical trial of Rhodamine 123 intra-venous infusions. It counts as in vivo, human. The note with it: for a 70 kg patient. On the procedure:
The Huntington Medical Research Institutes are addressing this issue in metastatic prostate cancer (Lawrence W. Jones, M. D. Huntington Memorial Hospital). Recently this institute published the results of a clinical trial where 33 patients with metastatic prostate cancer were treated with Rhodamine 123 intra-venous infusions.
Because inhibitors of oxidative phorphorylation are extremely toxic to a subject in the doses needed for efficacy via the systemic route, such inhibitors have been largely overlooked for effective treatment of conditions such as cancer. […] It is also known that the maximal tolerated dose of Rhodamine 123 delivered intra-venously in man is 95 mg/m^2. For a 70 kg patient, the maximum dose of systemically delivered rhodamine is about 150 mg. […] There was an accumulation of rhodamine in the prostate of the patients, but it was not sufficient to provoke a significant response.

The conditions of data set [6]: rodents; cited from earlier work.
Another data set deals with right breast tumor. The experiment in a line: Example 12: rods implanted in breast tumor. The class given is in vivo, human.

In turn, `O=C(O)CF` [fluoroacetate] yielded a remaining induration size in data set [1] (6 months later, after additional 6 sessions of radiotherapy at 5 Gy) of 1 cm. For the same compound, the lymphnode size in data set [1] (initially 5 cm, 1 month after 4 mg fluoroacetate slow release) came out at 3 cm. Also, in the data set on meningioma (MRI two months after 4 mg in poly(ortho)ester), the “lesion finding on MRI” value is listed as “partial necrosis”. Moreover, the “tumour necrosis on histological examination” value with meningioma (after surgical intervention) was found to be 80%. In the data set on meningioma (initially 3 cm, MRI two months after 4 mg in poly(ortho)ester), this compound gave a lesion size of 2.5 cm.

In [2] (initially 10 cm, 6 weeks after rods delivering 60 mg over 2 weeks), `C=C(C)[C@H]1Cc2c(ccc3c2O[C@@H]2COc4cc(OC)c(OC)cc4[C@@H]2C3=O)O1` [rotenone] displayed a mass size of 5.5 cm. Moreover, the lymphnode outcome in [2] (new implantation with 30 mg plus radiation dose of 50 Gy) is listed as “totally disappears”.

Consider Antimycin A, for which, in data set [3], the drop of pain entry was “⅔”.

rhodamine: the tumour outcome in the data set on tumour is “tumour death”. For the same compound, the “effect on prostate tumours” value in data set [4] (systemic, at the maximum non-lethal dose) was “no useful effect”. Also, the “maximum dose of systemically delivered rhodamine” value in data set [5] was “about 150 mg”.

rhodamine 123: the “LD10 (the dose which kills 10% of animals)” value in data set [6] is 20 mg/kg. In data set [4] (33 patients with metastatic prostate cancer, intra-venous infusions), the tumour response result is given as “no significant tumour response”. For the same compound, the PSA change result in [4] (33 patients with metastatic prostate cancer, intra-venous infusions, in some cases) is “slight PSA reduction”. For the same compound, in data set [4] (delivered intra-venously in man), the maximal tolerated dose is listed as 95 mg/m^2.

For the compound sodium arsenate, the tumor diameter is 3 cm with right breast tumor (after second session, 3 rods, total dose 30 mg) and 4 cm in the data set with right breast tumor (initially 6 cm, 2 months after four rods with 10 mg each).
